Experimental data taken from patent US9359371B2, “Bicyclic substituted pyrimidine compounds” (Xuanzhu Pharma Co., Ltd., priority 2012, dated 2016).
Like-named read-outs stand apart in the source and are kept apart here.

Assays:
[1] = system: bovine retinal PDE-6; assay: PDE-6 enzyme assay, [3H]cGMP; format: biochemical; details: for Selectivity (PDE-6/PDE-5): IC50 for PDE-6/IC50 for PDE-5; for selectivity on PDE-5 enzyme versus PDE-6 (in words): selectivity >70 called high
Procedure: (§1) Experiment 3: Measurement of Enzyme Activity on PDE-6 Enzyme In Vitro
(§2) Source of enzyme: PDE-6, bovine retinal PDE-6
(§3) Method: The test compound or solvent was incubated at 25° C. for 15 min with enzyme solution (0.2 μg/mL) in Tris-HCl buffer of pH 7.5. 100 μM cGMP and 0.03 μM [^3H] cGMP were then added to activate the reaction. The mixture was incubated for 20 min. The reaction was stopped at 100° C. By addition of snake venom nucleotidase, the product [^3H] GMP was converted into [^3H] Guanosine, which was separated with AG1-X2 resin. The amount of [^3H] Guanosine was measured.

[2] = molecular target: bovine retinal PDE-6 (Bos taurus (Bovine), UniProt P11541+P23439); assay: PDE-6 enzyme assay, [3H]cGMP; format: biochemical
bovine retinal PDE-6 (Bos taurus (Bovine), UniProt P11541+P23439), sequence (P11541 whole entry, looked up): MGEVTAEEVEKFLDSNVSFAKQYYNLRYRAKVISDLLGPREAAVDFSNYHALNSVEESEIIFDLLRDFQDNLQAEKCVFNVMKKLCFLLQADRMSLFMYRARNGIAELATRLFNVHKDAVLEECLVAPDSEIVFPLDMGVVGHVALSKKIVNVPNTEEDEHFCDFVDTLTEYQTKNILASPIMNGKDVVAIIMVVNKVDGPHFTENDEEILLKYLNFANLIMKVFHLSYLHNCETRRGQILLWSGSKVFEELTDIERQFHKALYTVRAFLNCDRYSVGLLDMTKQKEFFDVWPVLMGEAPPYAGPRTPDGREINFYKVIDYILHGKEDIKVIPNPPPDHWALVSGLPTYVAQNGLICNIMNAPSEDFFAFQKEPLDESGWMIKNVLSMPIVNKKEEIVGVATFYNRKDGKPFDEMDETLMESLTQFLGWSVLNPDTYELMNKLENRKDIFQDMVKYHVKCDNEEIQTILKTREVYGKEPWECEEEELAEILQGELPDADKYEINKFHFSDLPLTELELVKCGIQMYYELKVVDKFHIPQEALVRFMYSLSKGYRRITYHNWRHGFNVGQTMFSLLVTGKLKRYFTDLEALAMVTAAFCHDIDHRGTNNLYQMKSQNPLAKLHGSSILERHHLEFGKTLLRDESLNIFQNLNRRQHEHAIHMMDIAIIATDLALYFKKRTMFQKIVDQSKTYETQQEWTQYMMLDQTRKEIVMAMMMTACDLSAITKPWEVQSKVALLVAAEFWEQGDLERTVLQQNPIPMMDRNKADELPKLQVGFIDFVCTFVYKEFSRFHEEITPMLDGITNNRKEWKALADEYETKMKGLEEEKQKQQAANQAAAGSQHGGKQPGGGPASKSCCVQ
bovine retinal PDE-6 (Bos taurus (Bovine), UniProt P11541+P23439), sequence (P23439 whole entry, looked up): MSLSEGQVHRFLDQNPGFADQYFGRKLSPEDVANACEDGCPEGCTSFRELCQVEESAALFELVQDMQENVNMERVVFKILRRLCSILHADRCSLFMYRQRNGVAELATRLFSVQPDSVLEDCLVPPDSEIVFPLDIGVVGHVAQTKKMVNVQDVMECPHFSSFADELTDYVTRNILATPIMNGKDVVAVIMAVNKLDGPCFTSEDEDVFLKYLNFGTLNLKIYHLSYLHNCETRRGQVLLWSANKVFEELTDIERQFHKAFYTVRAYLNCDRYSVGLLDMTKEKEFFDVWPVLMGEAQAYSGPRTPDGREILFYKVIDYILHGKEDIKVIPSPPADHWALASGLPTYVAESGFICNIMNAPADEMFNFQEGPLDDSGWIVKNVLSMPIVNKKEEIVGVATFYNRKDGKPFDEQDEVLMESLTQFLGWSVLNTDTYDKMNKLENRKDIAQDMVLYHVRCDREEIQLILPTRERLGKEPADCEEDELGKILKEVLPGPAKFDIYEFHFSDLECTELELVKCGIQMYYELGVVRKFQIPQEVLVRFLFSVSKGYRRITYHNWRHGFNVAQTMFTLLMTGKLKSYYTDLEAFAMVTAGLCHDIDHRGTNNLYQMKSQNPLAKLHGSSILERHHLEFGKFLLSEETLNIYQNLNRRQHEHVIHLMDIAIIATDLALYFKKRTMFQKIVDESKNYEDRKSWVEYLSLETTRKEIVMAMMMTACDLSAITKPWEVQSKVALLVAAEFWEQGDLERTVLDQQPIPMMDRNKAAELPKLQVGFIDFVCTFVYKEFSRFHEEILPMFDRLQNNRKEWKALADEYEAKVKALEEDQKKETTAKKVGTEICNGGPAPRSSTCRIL
Procedure: as §1, §2, §3

[3] = molecular target: hERG channel (Homo sapiens (Human), UniProt Q12809); assay: hERG potassium channel whole-cell patch clamp on CHO-K1 cell line
hERG channel, sequence (Q12809 whole entry): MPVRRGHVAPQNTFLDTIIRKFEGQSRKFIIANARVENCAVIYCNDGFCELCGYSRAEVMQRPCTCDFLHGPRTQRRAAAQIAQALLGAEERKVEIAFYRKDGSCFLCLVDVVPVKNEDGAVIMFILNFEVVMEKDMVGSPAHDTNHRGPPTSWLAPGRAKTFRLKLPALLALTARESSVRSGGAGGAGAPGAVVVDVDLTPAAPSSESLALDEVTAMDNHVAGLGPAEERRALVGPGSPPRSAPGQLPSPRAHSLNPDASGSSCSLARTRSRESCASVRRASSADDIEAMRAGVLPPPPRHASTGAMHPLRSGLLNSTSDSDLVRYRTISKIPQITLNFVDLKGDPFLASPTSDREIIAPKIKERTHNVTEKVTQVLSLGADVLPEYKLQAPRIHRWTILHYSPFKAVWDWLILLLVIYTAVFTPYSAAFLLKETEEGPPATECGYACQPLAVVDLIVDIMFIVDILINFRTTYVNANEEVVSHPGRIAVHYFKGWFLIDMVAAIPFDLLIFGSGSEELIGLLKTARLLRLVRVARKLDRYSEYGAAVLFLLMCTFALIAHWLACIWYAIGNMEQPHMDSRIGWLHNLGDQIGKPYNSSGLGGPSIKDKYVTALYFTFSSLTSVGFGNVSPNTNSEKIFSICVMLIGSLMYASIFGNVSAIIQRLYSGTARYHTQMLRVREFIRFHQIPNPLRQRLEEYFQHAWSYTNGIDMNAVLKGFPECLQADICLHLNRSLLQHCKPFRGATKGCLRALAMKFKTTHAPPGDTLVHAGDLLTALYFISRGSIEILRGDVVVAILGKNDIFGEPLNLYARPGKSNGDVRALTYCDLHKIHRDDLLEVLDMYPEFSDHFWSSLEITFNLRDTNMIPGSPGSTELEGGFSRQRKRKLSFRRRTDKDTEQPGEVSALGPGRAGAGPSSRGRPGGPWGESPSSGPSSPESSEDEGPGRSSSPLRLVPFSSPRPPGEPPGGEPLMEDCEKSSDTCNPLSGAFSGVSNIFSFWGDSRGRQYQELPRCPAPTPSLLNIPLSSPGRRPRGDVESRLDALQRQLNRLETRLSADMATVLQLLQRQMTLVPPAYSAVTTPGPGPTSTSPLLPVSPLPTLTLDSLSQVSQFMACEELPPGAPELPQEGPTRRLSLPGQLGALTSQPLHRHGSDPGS
Source text: Experiment 8: Detection of Inhibitory Effect of the Compounds of the Present Invention on hERG Potassium Channel by the Patch Clamp Method
Rapidly activated human delayed rectifying outward potassium current (IKr) is mainly mediated by hERG ion channel and is involved in repolarization of human cardiac muscle cell. Clinically, blocking of the current by a drug is the main cause of QT interval prolongation syndrome, acute arrhythmia and even sudden death. The main purpose of the experiment is to test the blocking effect of the compounds of the present invention on hERG channel, and to determine the half maximal inhibitory concentration (IC50) of the compounds.
The experiment mainly included: (1) recording hERG current by patch clamp technique on CHO-K1 cell line which stably expressed hERG channel; (2) calculating the Inhibition rate of each concentration according to hERG tail current; (3) testing each compound at 5 concentrations to calculate IC50; (4) testing 2 cells at each concentration; (5) a positive control.
The structures and synthesis of Compound 88 (WO-88) and Compound 93 (WO-93) as disclosed in WO200119802A were described in Example 55 and Example 56.
Drug for positive control: Amitriptyline hydrochloride (Sigma-Aldrich, an international standard blocker for hERG channel)
Pippette Solution (in mM): KCl 120, KOH 31.25, CaCl2 5.374, MgCl2 1.75, Ethylene glycol-bis(β-aminoethyl ether)-N,N,N′,N′-tetraacetic acid (EGTA) 10, HEPES 10, Na2-ATP 4, adjusted to a pH of 7.2 with 1N potassium hydroxide; adjusted to an osmotic pressure of 280-290 mOsm; preserved at −20° C. after filtration.
Preparation of compounds: Some of the compounds of the present invention and Amitriptyline hydrochloride as the positive control drug were separately dissolved in 100% DMSO (Merck, 61850125001730), then prepared into stock solutions of 30 mM. Before the experiment, the above stock solutions were diluted with DMSO to a concentration of 1000-fold of the experimental concentration. Then the diluted solutions were further diluted with extracellular solution by 1:1000 to the required experimental concentration. The final concentration of DMSO in the extracellular solution was kept as 0.1%.
Stable cell line CHO-hERG was purchased from AVIVA Company. The hERG current on the cell line was recorded. For the purpose of quality control, the smallest seal resistance was no less than 500 MΩ, and the hERG current was no less than 0.4 nA.
The hERG current was recorded by a whole-cell patch clamp technique. Cell suspension was added into a 35-mm culture dish. The culture dish was placed on the objective table of an inverted microscope. Upon cell attachment, perfusion was conducted with the extracellular solution at a flow rate of 1-2 mL/min.
Glass microelectrode with the pipette tip resistance of 2-5 MΩ was controlled by a microelectrode puller via a two-step process. After the whole-cell record was set up, the clamp potential was kept at −80 mV. The cell was depolarized to +60 mV by applying a voltage stimulus, and then repolarized to −50 mV to obtain the hERG tail current. Recordation was conducted after the current was stable. The extracellular perfusion was started from the lowest concentration, with 5-10 min for each concentration until the current was stable, and then conducted with the next concentration.
Stimulus payment and signal collection were performed by A/D-D/A conversion using Digidata 1440 (Molecular Devices) and pCLAMP software (Version 10.2, Molecular Devices). Signal amplification was performed on a patch clamp amplifier (Multiclamp 700B, Molecular Devices), with a filter of 1 KHz. Further data analysis and curve fitting were conducted by Clampfit (version 10.2, Molecular Devices) and Prism. The data were presented as mean value±standard deviation.
In the process of data analysis, the peak value and the baseline of the tail current were corrected when determining the blocking effect on hERG.

[4] = Pharmacokinetics (PK) in SD rats; format: in vivo; details: rat; for AUC(0-inf) / Cmax / Tmax / half-life / bioavailability: SD, plasma; for bioavailability: read-out: F % (absolute bioavailability)
Procedure: Experiment 9: Assay of Pharmacokinetics (PK) of the Compounds of the Present Invention in SD Rats
Compound 1-54 of the present invention were prepared by the methods described in Example 1 to Example 54 of the present invention.
The control drug Avanafil, of which the structure was stated above, was purchased commercially.
Collection of the rat's blood: The animal was fixed. The tail was warmed with a water bath 10 min before the collection time. About 200 μL of whole blood was collected from the tail vein. The collected blood was collected into anticoagulant tubes containing heparin sodium. The blood samples were centrifuged at 4° C. by 8000 rpm for 6 min to give the plasma samples, which should be prepared within 30 min after the collection of blood. The plasma samples were stored in a freezer of −80° C. until test.
The result output by Analyst 1.5.1 of AB Company was used as the concentration of the tested sample (plasma sample). The mean value, standard deviation, variable coefficient and the like were calculated by Microsoft Excel (except for the result directly output by Analyst 1.5.1). Parameters of PK were calculated by Pharsight Phoenix 6.2 software. Formula for calculating oral bioavailability: F %=AUCinf−po*Doseiv/AUCinf−iv*Dosepo.

[5] = molecular target: PDE-5 enzyme (human blood platelets) (Homo sapiens (Human), UniProt O76074); assay: PDE-5 enzyme assay, [3H]cGMP; format: biochemical
[6] = molecular target: PDE-11 (Homo sapiens (Human), UniProt Q9HCR9); assay: Caliper Mobility-Shift PDE-11 Assay; format: biochemical; details: Table 4; maximum final concentration 10 μM
PDE-11, sequence (Q9HCR9 whole entry): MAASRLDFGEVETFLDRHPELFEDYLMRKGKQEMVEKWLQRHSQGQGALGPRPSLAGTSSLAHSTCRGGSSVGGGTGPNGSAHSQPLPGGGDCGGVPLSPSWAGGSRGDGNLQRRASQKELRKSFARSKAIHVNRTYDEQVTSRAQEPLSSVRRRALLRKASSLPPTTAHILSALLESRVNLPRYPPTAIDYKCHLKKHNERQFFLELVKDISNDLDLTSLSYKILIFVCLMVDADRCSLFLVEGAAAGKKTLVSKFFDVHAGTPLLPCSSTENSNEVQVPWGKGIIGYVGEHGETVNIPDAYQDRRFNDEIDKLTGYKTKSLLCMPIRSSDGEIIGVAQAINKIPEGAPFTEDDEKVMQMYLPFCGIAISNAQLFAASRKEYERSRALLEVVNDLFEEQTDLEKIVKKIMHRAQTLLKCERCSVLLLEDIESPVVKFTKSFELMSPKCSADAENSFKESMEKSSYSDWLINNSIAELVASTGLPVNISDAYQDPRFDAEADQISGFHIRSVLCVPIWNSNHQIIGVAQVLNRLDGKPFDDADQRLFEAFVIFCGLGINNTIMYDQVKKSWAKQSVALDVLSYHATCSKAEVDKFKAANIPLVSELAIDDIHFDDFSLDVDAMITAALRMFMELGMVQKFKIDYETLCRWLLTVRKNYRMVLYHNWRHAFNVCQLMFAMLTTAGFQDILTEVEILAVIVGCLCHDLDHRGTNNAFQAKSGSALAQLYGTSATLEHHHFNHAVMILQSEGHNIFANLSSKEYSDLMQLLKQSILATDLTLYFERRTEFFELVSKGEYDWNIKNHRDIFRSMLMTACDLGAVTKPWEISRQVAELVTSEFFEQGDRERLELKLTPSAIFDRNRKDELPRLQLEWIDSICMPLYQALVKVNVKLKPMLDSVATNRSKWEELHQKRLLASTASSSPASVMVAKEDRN
Procedure: Experiment 4: Measurement of Pharmacological Activity on PDE-11 Enzyme In Vitro
Method: enzyme assay, Caliper Mobility-Shift PDE-11 Assay
The test compound was accurately weighed, dissolved in DMSO, mixed thoroughly and formulated into 10 mM. The above stock solution was diluted to a concentration of 0.5 mM with DMSO, and then was gradiently diluted by a dilution factor of 3.162, resulting in 11 concentrations in total.
To a 96-well plate, 20 μL of 10 μM FL-cGMP as the substrate was added; then 1 μL solution of the compound in DMSO or DMSO solution without compound was added; and then 29 μL of 0.28 ng/μL PDE-11 enzyme buffer (100 mM Hepes pH 7.5, 5 mM MgCl2, 0.002% Brij-35) was added. The maximum final concentration of the compound was 10 μM. The plate was incubated at 30° C. for 1 h, and 20 μL of 70 μM EDTA was then added to stop the reaction. 26 μL of solution of each well was transferred to a 384-well plate. The conversion was read on a EZ reader II. The Inhibition rate was calculated by the formula below, and used to calculate IC50 by Prism 5.0 Inhibition rate=[Conversion (ZPE)−Conversion (sample)]×100/[Conversion (ZPE)−Conversion (HPE)]
Note: HPE: control without enzyme; ZPE: control without compound

[7] = molecular target: PDE-5A enzyme (Homo sapiens (Human), UniProt O76074); assay: Caliper Mobility-Shift PDE-5A Assay; format: biochemical; details: Table 1; Avanafil value is the control
Procedure: Experiment 1: Measurement of Enzymatic Activity In Vitro
PDE-5A enzyme: humanized PDE-5 enzyme, SignalChem, Cat#93-31G-20.
Method: enzyme assay, Caliper Mobility-Shift PDE-5A Assay:
The test compound was accurately weighed, dissolved in DMSO, mixed thoroughly and formulated into 10 mM.
The maximum final concentration of the compound was 10 μM. The plate was incubated at 30° C. for 1 h, and 20 μL of 70 μM EDTA was then added to stop the reaction. 26 μL of solution of each well was transferred to a 384-well plate. The conversion was read on a EZ reader II. The inhibition rate was calculated by the formula below, and used to calculate IC50 by Prism 5.0 Inhibition rate=[Conversion (ZPE)−Conversion (sample)]×100/[Conversion (ZPE)−Conversion (HPE)]
Note: HPE: control without enzyme; ZPE: control without a test compound

[8] = Table 3, read-out: IC50 on PDE-6
[9] = Table 4-1, read-out: PDE-6 (IC50 nM)
[10] = po, intragastric administration, 5 mg/kg
[11] = Table 2, human blood platelet enzyme, read-out: IC50 on PDE-5
[12] = Table 4-1, read-out: PDE-5 (IC50 nM)
[13] = po, intragastric administration, 1 mg/kg

Row | SMILES | Selectivity (PDE-6/PDE-5) [1] | selectivity on PDE-5 enzyme versus PDE-6 (in words) [1] | IC50 [2, 8] | IC50 [2, 9] | IC50 [3] | AUC(0-inf) [4, 10] | Cmax [4, 10] | Tmax [4, 10] | half-life [4, 10] | bioavailability [4, 10] | AUC(0-inf) ([4]; intravenous injection, 2 mg/kg) | half-life ([4]; intravenous injection, 2 mg/kg) | Cl_obs ([4]; intravenous injection, 2 mg/kg) | Vss_obs ([4]; intravenous injection, 2 mg/kg) | IC50 [5, 11] | IC50 [5, 12] | AUC(0-inf) ([4]; intravenous injection, 1 mg/kg) | half-life ([4]; intravenous injection, 1 mg/kg) | Cl_obs ([4]; intravenous injection, 1 mg/kg) | Vss_obs ([4]; intravenous injection, 1 mg/kg) | further results
1 | COc1ccc(CNc2nc(N3CC4CC4C3)ncc2C(=O)N[C@H]2CC[C@H](O)CC2)cc1F (stereo partly drawn) [Compound 48, 2-(3-azabicyclo[3.1.0]hexan-3-yl)-4-((3-fluoro-4-methoxybenzyl)amino)-N-(trans-4-hydroxycyclohexyl)pyrimidine-5-formamide] | 140 | higher selectivity on PDE-5 enzyme than to PDE-6 | 1110 nM | 1110 nM | 8760 nM | 2330 ng·h/mL | 415 ng/mL | 2 h | 2 h | 63% | 2060 ng·h/mL | 4.4 h | 17 mL/min/kg | 4.59 L/kg | 7.99 nM | 7.99 nM | – | – | – | – | inhibitory effect on hERG channel (in words) [3]: slight inhibitory effect
2 | COc1ccc(CNc2nc(N3CCC4(CC4)C3)ncc2C(=O)NCCN2CCN(C)CC2)cc1Cl [Compound 46, 4-((3-chloro-4-methoxybenzyl)amino)-N-(2-(4-methylpiperazin-1-yl)ethyl)-2-(5-azaspiro[2.4]heptan-5-yl)pyrimidine-5-formamide] | 1000 | – | 310 nM | 310 nM | – | – | – | – | – | – | – | – | – | – | 0.31 nM | 0.31 nM | 214 ng·h/mL | 13.9 h | 79 mL/min/kg | 86.40 L/kg | IC50 [6]: > 10000 nM; IC50 [7]: 14.9 nM
3 | COc1ccc(CNc2nc(N3Cc4cccnc4C3)ncc2C(=O)N[C@H]2CC[C@H](O)CC2)cc1Cl [WO-93, N-(trans-4-hydroxycyclohexan-1-yl)-4-((3-chloro-4-methoxybenzyl)amino)-2-(5H-pyrrolo[3,4-b]pyridin-6(7H)yl)-5-pyrimidine formamide, reference compound] | – | – | – | – | > 30000 nM | – | – | – | – | – | – | – | – | – | – | – | 709 ng·h/mL | 2.6 h | 25 mL/min/kg | 5.0 L/kg | AUC(0-inf) [4, 13]: 89 ng·h/mL; Cmax [4, 13]: 15 ng/mL; Tmax [4, 13]: 4 h; half-life [4, 13]: 2.8 h; bioavailability [4, 13]: 16%
4 | COc1ccc(CNc2nc(N3CCC[C@H]3CO)ncc2C(=O)N[C@H]2CC[C@H](O)CC2)cc1Cl [WO-88, N-((trans)-4-hydroxylcyclohexan-1-yl)-4-((3-chloro-4-methoxybenzyl)amino)-2-((s)-2-(hydroxymethyl)tetrahydropyrrole-1-yl)-5-pyrimidine formamide, reference compound] | – | – | – | – | > 30000 nM | – | – | – | – | – | – | – | – | – | – | – | 347 ng·h/mL | 1 h | 48.3 mL/min/kg | 3.6 L/kg | AUC(0-inf) [4, 13]: 63 ng·h/mL; Cmax [4, 13]: 29 ng/mL; Tmax [4, 13]: 0.5 h; half-life [4, 13]: 2.8 h; bioavailability [4, 13]: 23%; IC50 [5]: 0.59 nM
5 | COc1ccc(CNc2nc(N3CC4CC4C3)ncc2C(=O)N[C@H]2CC[C@H](O)CC2)cc1C (stereo partly drawn) [Compound 50, 2-(3-azabicyclo[3.1.0]hexan-3-yl)-N-((trans)-4-hydroxycyclohexyl)-4-((4-methoxy-3-methylbenzyl)amino)pyrimidine-5-formamide] | 85 | higher selectivity on PDE-5 enzyme than to PDE-6 | 660 nM | 660 nM | > 30000 nM | 4720 ng·h/mL | 377 ng/mL | 6 h | 5.4 h | 65% | 2580 ng·h/mL | 4.1 h | 13 mL/min/kg | 4.48 L/kg | 7.72 nM | 7.72 nM | – | – | – | – | inhibitory effect on hERG channel (in words) ([3]; human, CHO-K1 cells stably expressing hERG channel, pH 7.4): none of Compound 3, 11 and 50 of the present invention had a significant inhibitory effect
